{"source": "patent US20060078921A1", "about": "“Biomarkers and expression profiles for toxicology” (priority 2002, published 2006)", "key": {"[1]": {"test": "Classification of liver expression profiles with support vector machines", "design": "species or system Wistar rats", "conditions": "compounds not present in the initial training set, individual animals, 5 SVMs", "description": "Adult male Wistar rats were dosed in vivo and the resulting expression profile in liver was determined. SVMs were built for the discrimination between 3 different classes of hepatotoxicants, non-toxic substances and controls. The training set consisted of 180 gene expression profiles from individual animals treated with direct acting, cholestatic, steatotic, non-toxic compounds and corresponding vehicle-dosed controls. As a first step the chips were rescaled to a median value of 0 and a standard deviation of 1. Subsequently chips were presented to a linear kernel SVM (for classifier training the SVM software package from William Stafford Noble, Department of Computer Science, Columbia University, New York was used. Procedures for the Recursive Feature Elimination (RFE), automation of the whole training cycles and further data analysis were developed in house, using the PERL language.) Single binary classifiers for each category of chips were obtained by training one group against all others (‘One-vs-All’ training method). Multi-class classification for a given test chip was then carried out by combining the outputs of all binary classifiers. A leave-one-out cross validation procedure was applied to assess the quality of the trained machines with respect to the training data. […]"}, "liver": {"tested_on": "liver", "conditions": "man, cited from earlier work"}, "GADD-45": {"tested_on": "GADD-45", "test": "RT-PCR of GADD-family genes in liver, GADD-45", "design": "species or system Wistar rats", "conditions": "rat liver, in vivo", "from_the_text": "(§1) The induction of these genes correlates with the histopathological findings in a time related fashion: While PEG-3 seems to be an early marker, GADD-45 and GADD-143 appear regulated at later time points, when the tissue damage is obvious by conventional endpoints."}, "GADD-153": {"tested_on": "GADD-153", "test": "RT-PCR of GADD-family genes in liver, GADD-153", "design": "species or system Wistar rats", "conditions": "rat liver, in vivo", "from_the_text": "as §1"}, "PEG-3": {"tested_on": "PEG-3", "test": "RT-PCR of GADD-family genes in liver, PEG-3", "design": "species or system Wistar rats", "conditions": "rat liver, in vivo", "from_the_text": "as §1"}, "AH-Receptor": {"tested_on": "AH-Receptor", "test": "Affymetrix GeneChip liver expression, AH-R", "format": "in vivo, Wistar rats", "conditions": "rat liver, 24 H, control = 1.0", "description": "Male Wistar rats (generally 5 animals/dose-group) were purchased from BRL (Füllingsdorf, Switzerland) and housed individually. Treated animals were dosed either orally, intraperitoneally, or intravenously with several doses of test compounds (Table 1). […] Control animals received the same volume of vehicle as placebo. Necropsy was performed 6 or 24 hours after a single administration and liver samples from the left medial lobe were placed immediately in RNALater (Ambion, Tex., USA) for RNA extraction and gene expression analysis. Samples in RNALater were stored at −20° C. until further processing.\nFor RNA isolation from liver tissue, a portion of tissue of approximately 100 mg was transferred to a tube containing 1.2 ml RNAzol. […] Total RNA was isolated according to the manufacturer's instruction and quantified by measuring the optical density at 280 nm. The quality of RNA was assessed with gel electrophoresis. […]\nAfter hybridization and scanning, the expression level of each gene was calculated by subtracting the fluorescence intensity of the mismatch probes from the match signal (=average difference) using the [sequence] […] Gene expression data were further analyzed with an in-house-developed data analysis tool (RACE-A, Hoffmann-La Roche, Basel, Switzerland). […] Analyzed data were stored in a toxicogenomics database (RACE-R, Hoffmann-La Roche, Basel, Switzerland). […]"}, "[2]": {"tested_on": "candidate marker genes (Table 4)", "test": "RT-PCR of candidate marker genes to differentiate toxic and non-toxic 5-HT6 receptor antagonists (FIG. 10)", "format": "in vivo, Wistar rats", "conditions": "rat liver, some of the selected genes", "description": "The regulation of the mRNA levels of several candidate genes (Table 4) was verified with quantitative RT-PCR. Specific primers for these genes have been designed in order to evaluate the expression with RT-PCR using SybrGreen assay (Table 6). For each performed RT-PCR reaction, the specificity of the assay was evaluated with dissociation curve software (Applied Biosystems), as well as by assessment of the size of the product using either gel electrophoresis or Agilent Bioanalyzer.\nIn a first step, the induction of the mRNA levels of 9 candidate genes (Table 5 and FIG. 10) was verified with quantitative PCR. […] As an internal control, the house-keeping gene glycernine-aldehyde-phosphate-dehydrogenase (GAPDH) was also analyzed."}, "EGR1": {"tested_on": "EGR1", "test": "EGR-1 induction in rats (RT-PCR)", "format": "in vivo", "conditions": "confirmed by RT-PCR", "experimental": "Tolcapone (Tasmar) is a human hepatotoxin with no known toxicity in the rat.\n§: The compounds were administered to the experimental animals three times, every 12 Hours. Animals were sacrificed 3 hours after the last administration. Shaded cells represent significant induction (threshold usually 2-fold induction)."}}}
{"smiles": "O=C(O)CCCCCCNC1c2ccccc2CCc2ccccc21", "note": "[amineptine]", "values": [{"measurement": "SVM classification of compound class from liver expression profiles", "setting": "[1]", "result": "steatotic compound"}]}
{"smiles": "Nc1c2c(nc3ccccc13)CCCC2", "note": "[Tacrine]", "values": [{"measurement": "incidence of hepatotoxicity in treated patients", "setting": "liver; Alzheimer's disease patients", "result": "40-50%"}]}
{"smiles": "CN(C)CCCN1c2ccccc2Sc2ccc(Cl)cc21", "note": "[Chlorpromazine]", "values": [{"measurement": "treated patients who develop jaundice", "setting": "liver", "result": "Up to 1%"}]}
{"smiles": "Clc1ccccc1Cl", "note": "[1,2-dichlorobenzene]", "values": [{"measurement": "SVM classification of compound class from liver expression profiles", "setting": "[1]", "result": "direct acting compound"}, {"measurement": "induction of GADD-45 (RT-PCR)", "setting": "GADD-45", "result": "induction"}, {"measurement": "induction of GADD-153 (RT-PCR)", "setting": "GADD-153", "result": "induction"}, {"measurement": "induction of PEG-3 (RT-PCR)", "setting": "PEG-3", "result": "induction"}]}
{"smiles": "CC(=N)S", "note": "[Thioacetamide]", "values": [{"measurement": "induction of GADD-45 (RT-PCR)", "setting": "GADD-45", "result": "induction"}, {"measurement": "induction of GADD-153 (RT-PCR)", "setting": "GADD-153", "result": "induction"}, {"measurement": "induction of PEG-3 (RT-PCR)", "setting": "PEG-3", "result": "induction"}]}
{"smiles": "Nc1ccc(S(=O)(=O)c2cc(Br)nc(N3CCCC3)c2)cc1", "note": "[Ro66-0074, 4-(2-Bromo-6-pyrrolidin-1-yl-pyridine-4-sulfonyl)-phenylamine]", "values": [{"measurement": "AH-R Affymetrix", "setting": "AH-Receptor", "result": 1.0}, {"measurement": "expression levels of selected marker genes (RT-PCR, FIG. 10)", "setting": "[2]", "result": "slight induction"}]}
{"smiles": "NN", "note": "[Hydrazine]", "values": [{"measurement": "induction of GADD-45 (RT-PCR)", "setting": "GADD-45", "result": "induction"}, {"measurement": "induction of GADD-153 (RT-PCR)", "setting": "GADD-153", "result": "induction"}, {"measurement": "induction of PEG-3 (RT-PCR)", "setting": "PEG-3", "result": "induction"}]}
{"smiles": "O=[N+]([O-])c1ccc(O)c([N+](=O)[O-])c1", "note": "[dinitrophenol, Dinitrophenol]", "values": [{"measurement": "induction of EGR1", "setting": "EGR1; 10 and 30 mg/kg", "result": "slight induction"}]}
{"smiles": "Cc1ccc(C(=O)c2cc(O)c(O)c([N+](=O)[O-])c2)cc1", "note": "[Tolcapone]", "values": [{"measurement": "induction of EGR1", "setting": "EGR1; high dose 300 mg/kg", "result": "slight induction"}]}
